Like-named read-outs stand apart in the source and are kept apart here.
Assays:
db/db mice [1] = assay: Bone marrow cell counts and progenitor colonies in db/db mice; format: in vivo; settings: 500 mcg/kg/day subcutaneously, 14 days
Procedure: The femurs and tibia were collected from db/db mice treated 500 mcg/kg/day Ang(1-7) or Compound 7 subcutaneously for 14 days were euphanized and the bone marrow were collected by flushing with PBS containing 2% fetal calf serum. After collection of the bone marrow, the red blood cells will be lysed with a hypotonic solution (described above), mixed with 0.04% trypan blue and the number of nucleated cells was assessed by hematocytometer under light microscopy. Aliquots of cells were then resuspended at 1×10^6 cells/ml (GM and GEMM, bone marrow), 1.5×10^6 cells/ml (BFU-E, bone marrow). One hundred μ1 of each suspension was added to 900 μl of semisolid medium containing 0.9% methyl cellulose in Iscove's MDM, 15% fetal calf serum, 1% bovine serum albumin, 10 μg/ml bovine pancreatic insulin, 200 μg/ml human transferrin, 10^−4 M 2-mercaptoethanol, 2 mM glutamine, 10 ng/ml recombinant murine interleukin 3, 10 ng/ml recombinant human interleukin 6, 50 ng/ml recombinant murine stem cell factor and 3 units/ml erthropoietin. This mixture was then added to duplicate wells of a 24 well plate. The cultures were then placed at 37° C. in a humidified atmosphere of 5% CO2 in air. At day 14, the number of progenitor colonies formed was enumerated under phase contrast microscopy.
The bone marrow cells were also cultured to assess the number of MSCs by a CFU—F assay. 2.5×10^5 cells/ml, 2 ml per well, were diluted into Mesencult medium (Stem Cell Technologies, Vancouver, BC, Canada) and 2 mL were placed in each well of a 24 well plate. The cultures were then incubated at 37° C. in a humidified atmosphere of 5% CO2 in air. At days 2, 5 and 8, the number of progenitor colonies formed was enumerated under phase contrast microscopy.

db/db mice [2] = assay: Organ weights (organmegaly) in db/db mice; format: in vivo; settings: 14 days
Description: Compound 7 (500 mcg/kg/day) or Ang(1-7) (500 mcg/kg/day) treated db/db mice were euphanized after 14 days of treatment. At necropsy, organs were collected for histology and weights. In FIG. 6A to 6C, hearts, left and right kidney normalized to tibia length were weight where db/db treated with Compound 7 were lower than db/db-controls (saline) and db/db treated with Ang(1-7).

MDA MB 231 = assay: MTT cellular viability of MDA MB 231 breast cancer cell line; format: cell-based; settings: for IC50: Homo sapiens, MDA-MB-231, MTT
Procedure: Compound 7 was evaluated for its ability to modulate cancer proliferation using MDA MB 231 breast cancer cell line. MDA MB 231 was treated with increasing concentration of Compound 7 ranged from 1×10^−12 to 1×10^−3 M, where the cells were incubated for 48 hours. After the incubation, cellular viability was evaluated using 3-(4,5-dimethylthiazol-2-yl)-2,5-diphenyltetrazolium bromide or MTT, where viable cells are able to reduce MTT to formazan and form an insoluble crystal. The solubilized crystal can be spectrometrically determine, where cellular viability is compared to cells treated with vehicle. The cellular viability of MDA MB 231 is summarized (FIG. 9). […] Rather at 1×10^−12 M ([…]) of Compound 7, the cellular proliferation was only 70% of vehicle treated.

AT1R = target: T1, AT1R (Homo sapiens, UniProt P30556); assay: AT1R displacement assay with radiolabeled Ang II; format: binding; settings: displacement of radiolabeled Ang II or analogs; read-out: EC50 displacing Ang II at the AT1 receptor
T1 sequence (P30556 1-359): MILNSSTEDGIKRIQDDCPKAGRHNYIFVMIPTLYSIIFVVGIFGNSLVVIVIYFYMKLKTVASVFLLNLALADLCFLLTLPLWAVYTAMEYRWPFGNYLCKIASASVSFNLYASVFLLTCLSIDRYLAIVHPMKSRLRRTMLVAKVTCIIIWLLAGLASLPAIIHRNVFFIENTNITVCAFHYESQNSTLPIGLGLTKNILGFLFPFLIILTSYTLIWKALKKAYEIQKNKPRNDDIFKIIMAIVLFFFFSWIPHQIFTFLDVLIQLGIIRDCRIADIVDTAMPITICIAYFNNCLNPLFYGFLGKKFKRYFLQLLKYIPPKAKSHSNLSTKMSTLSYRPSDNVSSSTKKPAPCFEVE
Procedure: Compound 7 was evaluated in vitro for its ability to compete with ratholabeled Ang II or analogs in a displacement assay for AT1R and AT2R receptors.

db/db mice [3] = assay: Fasting blood glucose in db/db mice; format: in vivo
Procedure: Mice homozygous for the diabetes spontaneous mutation Lepr^db (BKS.Cg-Dock7^m+/+Lepr^db/J), which is an obese model of type 2 diabetes as a consequence of truncation of the leptin receptor, have verified plasma glucose levels >500 mg/dL prior to initiation of treatment. Food and water were available ad libitum, and all mice were kept on a 12-hour light/dark cycle. BKS.Cg-Dock7^m+/+Lepr^db/J mice and their heterozygous controls (n=6/group) were administered either saline (control), Ang-(1-7) (500 mcg/kg/day), or Compound 7 500 mcg/kg/day for two weeks by subcutaneous (SC) injection. Mice were fasted overnight prior to assessment of plasma glucose levels. Blood was taken from the saphenous vein and tested for glucose levels by a glucometer.

[4] = 500 mcg/kg/day, p<0.05 vs db/db controls

For CCCCOC(=O)NS(=O)(=O)c1ccc(OC(F)(F)F)cc1-c1ccc(Cn2ccnc2)cn1 [Compound 7, butyl (2-(5-((1H-imidazol-1-yl)methyl)pyridin-2-yl)-4-(trifluoromethoxy)phenyl)sulfonylcarbamate], the bone marrow counts (db/db mice [1]) was “increase bone marrow counts”, the “increase in bone marrow cell number, CFU-GEMM, CFU-GM, BFU-E and MSC” value (db/db mice [1]) was “comparable to Ang(1-7)” and the bone marrow counts (db/db mice [1]; listed as compound 7) was “increased the bone marrow counts”. The right kidney weight (db/db mice [2]; 500 μg/kg/day) was “trended to be similar to heterozygous control”, the “development of cardiomegaly (heart weight normalized to tibia length)” value (db/db mice [2]; [4]) was “prevent the development of cardiomegaly” and the “development of left kidney hypertrophy (weight normalized to tibia length)” value (db/db mice [2]; [4]) was “prevent”. For the same compound, the IC50 (MDA MB 231; 48 hours, read-out: IC50 (MDA MB 231 proliferation)) was 58 nM, the IC50 (MDA MB 231; 48 hours, read-out: IC50 (MDA MB 231 viability, Hill-slope analysis)) was 58.2 nM and the “effect on breast cancer cell proliferation” value (MDA MB 231; MDA MB 231, 1×10^−12 to 1×10^−3 M) was “did not increase breast cancer cell proliferation”. For the same compound, the “cellular proliferation, % of vehicle treated” value (MDA MB 231; MDA MB 231, at 1×10^−12 M, 48 hours) was 70%, the EC50 (AT1R) was over 10000 nM and the “reduction of peripheral glucose versus vehicle or Ang(1-7) treated mice” value (db/db mice [3]; 500 μg/kg/day, 14 days) was over 40%. For the same compound, the “reduction of FBG in terms of the excess blood glucose over non-diabetic controls” value (db/db mice [3]; 500 mcg/kg/day SC, two weeks) was 72% and the “fasting blood glucose (FBG) versus db/db mice treated with saline” value (db/db mice [3]; 500 mcg/kg/day SC, two weeks, p<0.05) was “significantly lower”.

Source: patent publication US10301298B2, “Methods, compounds, and compositions for the treatment of angiotensin-related diseases” (University of Southern California, priority 2013, dated 2019)
